Measured values from US20070243598A1, “NOVEL PSEUDONOCARDIA SP. RMRC PAH4 AND A PROCESS FOR BIOCONVERTING COMPACTIN INTO PRAVASTATIN USING THE SAME” (CHINESE PETROLEUM CORPORATION, priority 2004, published 2007).

Test system: Pseudonocardia sp. RMRC PAH4
Assay: Tolerance of Pseudonocardia sp. RMRC PAH4 against compactin sodium
Assay type: cell-based
Settings: added after 48 hours on shaker in YMG liquid medium, 220 rpm, 28° C.; conversion rate could not exceed 30%
Procedure: The strain was inoculated in the culture medium consisting of casein hydrolysate 0.05-0.2%; yeast extract 0.05-0.2%; soluble starch 0.5-2.0%; KH2PO4 0.01-0.08%; MgSO4.7H2O 0.05-0.2%; Pravastatin sodium 0.005-0.01%; and Bacto agar 2.0%, pH 7.0, and incubated under 28° C. for 7-20 days.
The above inoculum culture was incubated in compactin sodium-containing YMG liquid medium consisting of yeast extract 0.1-1.0%; malto extract 0.1-1.0%; peptone 0.1-1.0%; glucose 0.5-2.0%; cotton seed extract (Pharmamedia) 0.5-0.5%; KH2PO4 0.1-0.5%; Na2HPO4 0.3-0.7%; MgSO4.7H2O 0.01-0.05%; FeSO4.7H2O 0.001-0.01%; MnSO4.H2O 0.001-0.01%; CaCl2 0.001-0.01%; compactin sodium 0.002-0.01%; pH 6.5, on a shaker, at 220 rpm, under 28° C.
After incubating on shaker as described above for 48 hours, 300-3,000 μg/ml of compactin sodium as added and continued the incubation under same conditions. Utilization rate of compactin sodium and conversion rate of Pravastatin sodium were analyzed by HPLC at an interval of 24 hours.

Structure (SMILES): CC[C@H](C)C(=O)O[C@H]1CCC=C2C=C[C@H](C)[C@H](CCCC[C@@H](O)CC(=O)O)[C@H]21 [compactin sodium]
- amount of compactin sodium added above which growth of the bacteria becomes considerably slow: more than 2,500 μg/ml
